System: not listed separately
Assay: Example A: treatment of an obese human subject to incur weight loss
Type: in vivo
Settings: obese human 130 kg; intravenous injection once each day for 6 months, 15 ml aqueous solution with 5 mg/ml compound
Procedure: An obese human subject weighing 130 kg is treated by this method to incur weight loss. Specifically, once each day for a period of 6 months, the subject is administered, via intravenous injection, 15 ml of an aqueous solution comprising the following: […]

Row | Substance | weight loss at the end of the treatment period
1 | Ac-a[DYfRWGK]-NH2 [Example 1] | measurable weight loss

Molecular target: T1, MC-4 receptor (Homo sapiens, UniProt P32245)
T1 construct: expressed in transfected cells; host or cells: HEK cells (stably transfected)
T1 sequence (P32245 whole entry): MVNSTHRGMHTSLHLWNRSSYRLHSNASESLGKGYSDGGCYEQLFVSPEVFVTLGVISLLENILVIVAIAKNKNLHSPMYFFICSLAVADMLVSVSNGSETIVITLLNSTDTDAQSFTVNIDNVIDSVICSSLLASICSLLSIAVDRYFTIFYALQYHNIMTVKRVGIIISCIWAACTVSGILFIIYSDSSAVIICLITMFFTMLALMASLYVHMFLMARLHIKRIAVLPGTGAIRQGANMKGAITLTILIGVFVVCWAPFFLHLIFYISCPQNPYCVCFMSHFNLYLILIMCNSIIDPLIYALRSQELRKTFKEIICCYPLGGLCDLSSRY
Assay: BioTrak cAMP direct enzymeimmunoassay in HEK cells stably transfected with MC-1, MC-3 or MC-4 receptors (% cAMP relative to NDP-MSH)
Type: cell-based
Settings: % of maximal cAMP produced by NDP-MSH; concentrations 1×10^−8 to 1×10^−4 molar; HEK cells transfected with MC-1, MC-3 or MC-4
Procedure: The NDP-MSH standard was evaluated for the level of c-AMP release at each receptor and the values for the test samples were expressed as a % of the maximal amount produced by NDP-MSH. 1R, 3R, and 4R correspond respectively to the MC-1, MC-3, and MC-4 receptors. The % c-AMP produced by each compound was measured at concentrations from 1×10^−8 to 1×10^−4 molar.
As used herein, “MC-4 agonist” and “MC-3 agonist” refers to a compound with affinity for the MC-4 receptor or MC-3 receptor, respectively, that results in measurable biological activity in cells, tissues, or organisms which contain the MC-4 or MC-3 receptor. […] One particularly useful assay is the BioTrak TM cAMP direct enzymeimmunoassay (EIA) system from Amersham Pharmacia Biotech, which quantitates the cAMP response of cells to MC ligands. This system allows the simple quantitation of total cellular cAMP measurement in cells exposed to selective ligands. Briefly summarized: HEK cells stably transfected with the MC-1, MC-3 or MC-4 receptors are plated into 96 well microtiter plates and grown overnight. Cells are dosed with the appropriate MC ligand for 1 hour and then lysed. A fraction of the lysed cell extract is transferred to the assay plate. The ELISA assay is performed according to kit instructions. Each plate contains a series of cAMP standards for calculating a standard curve, as well as a full MC agonist as a positive control for each MC receptor. cAMP activity is calculated as a % of the maximum cAMP activity of the full MC agonist control.
A compound's selectivity is determined from a comparison of its EC50 values at the relevant receptors being referenced. As used herein, use of the term “selective over the other MC receptors” means selective with respect to all of the MC-1, MC-2 and MC-5 receptors. For example, a compound having an EC50 of 8 nM at the MC-4 receptor and an EC50 of ≧80 nM at the MC-1, MC-2 and MC-5 receptors has a selectivity ratio for the MC-4 receptor over the other MC receptors of at least 1:10. Additionally, it will be recognized that selectivity may also refer to one of the MC-1, MC-2 or MC-5 receptors individually. For example, a compound having an EC50 of 8 nM at the MC-4 receptor and an EC50 of 80 nM at the MC-1 receptor has a selectivity ratio for the MC-4 receptor over the MC-1 receptor of 1:10. Such a compound is selective over the MC-1 receptor, regardless of its EC50 value for MC-2 or MC-5. Selectivity is described in more detail below and may be determined by using, for example, the software Prism v 2.0 which is available from GraphPad, Inc.

Row | Substance | selectivity shown by % cAMP activity at various concentrations at MC-1R, MC-3R and MC-4R
2 | Ac-NIeDHfRWGK-NH2 [reference compound] | non-selective agonist
3 | Ac-SYSNIeEHfRWGKPV-NH2 [reference compound] | non-selective agonist
4 | Ac-[DYfRWGK]-NH2 [Example 2] | selectivity of this analog for MC-4R over the MC-3R and MC-1R
5 | Ac-aDYfRWG(Orn)-NH2 [Example 17] | selectivity of this analog for MC-4R over MC-1R
6 | Ac-aDYfRWGK-NH2 [Example 16] | selectivity of this analog for MC-4R over the MC-3R and MC-1R
7 | Ac-aDYfRWK-NH2 [Example 14] | selectivity of this analog for MC-4R over MC-1R
8 | Ac-aEYfRWG(Orn)-NH2 | selectivity of this analog for MC-4R over MC-1R
9 | Ac-a[DYfRWG(Orn)]-NH2 [Example 31] | selectivity of this analog for MC-4R over MC-1R
10 | Ac-a[EYfRWG(Orn)]-NH2 [Example 4] | selectivity of this analog for MC-4R over the MC-3R and MC-1R
11 | Ac-a[EYfRWGK]-NH2 [Example 5] | selectivity of this analog for MC-4R over the MC-3R and MC-1R

From patent US6951916B2, “Melanocortin receptor ligands” (The Procter & Gamble Company, priority 1999, dated 2005)
